# Laboratory results taken from ChEMBL document CHEMBL3880414, “Isoform Selective HDAC Inhibitors” (2010).
# Calls of active or inactive are those of the source. No cut-off for these calls is given here.
# Columns and labels:
# [1] = Antiproliferative activity against human NHP5 cells; assay type: cell-based
# [2] = Antiproliferative activity against human MCF10A cells; assay type: cell-based; details: MCF-10A
# [3] = Antiproliferative activity against human HS68 cells; assay type: cell-based
# [4] = Antiproliferative activity against human SCC35 cells; assay type: functional, cell-based
# [5] = Antiproliferative activity against human DU145 cells; assay type: functional, cell-based; details: DU-145
# [6] = Antiproliferative activity against human MCF7/ADR cells; assay type: functional, cell-based; details: NCI/ADR-RES
# [7] = Antiproliferative activity against human MDA231 cells; assay type: functional, cell-based; details: MDA-MB-231
# Plasmodium falciparum [8] = test: Antiparasitic activity against Plasmodium falciparum 3D7 assessed as growth inhibition; assay type: functional
# Plasmodium falciparum [9] = test: Antiparasitic activity against Plasmodium falciparum 7G8 assessed as growth inhibition after 56 hrs; assay type: functional
# Plasmodium falciparum [10] = test: Antiparasitic activity against Plasmodium falciparum Dd2 assessed as growth inhibition; assay type: functional
# Plasmodium falciparum [11] = test: Antiparasitic activity against Plasmodium falciparum FCR-3/Gambia assessed as growth inhibition after 56 hrs; assay type: functional
# Plasmodium falciparum [12] = test: Antiparasitic activity against Plasmodium falciparum Dd2 assessed as growth inhibition after 56 hrs; assay type: functional
# Plasmodium falciparum [13] = test: Antiparasitic activity against Plasmodium falciparum 3D7 assessed as growth inhibition after 56 hrs; assay type: functional
# Plasmodium falciparum [14] = test: Antiparasitic activity against chloroquine-resistant/verapamil-insensitive Plasmodium falciparum 7G8; assay type: functional
# Plasmodium falciparum [15] = test: Antiparasitic activity against chloroquine-sensitive Plasmodium falciparum 3D7; assay type: functional
# Plasmodium falciparum [16] = test: Antiparasitic activity against chloroquine-sensitive Plasmodium falciparum HB3; assay type: functional
# Plasmodium falciparum [17] = test: Antiparasitic activity against chloroquine-resistant/verapamil-sensitive Plasmodium falciparum Dd2 assessed as growth inhibition in presence of chloroquine; assay type: functional
# Plasmodium falciparum [18] = test: Antiparasitic activity against chloroquine-resistant/verapamil-sensitive Plasmodium falciparum Dd2; assay type: functional
# Plasmodium falciparum [19] = test: Antiparasitic activity against chloroquine-resistant/verapamil-sensitive Plasmodium falciparum FCR-3/Gambia; assay type: functional
# Plasmodium falciparum [20] = test: Antiparasitic activity against chloroquine-resistant/verapamil-sensitive Plasmodium falciparum FCB; assay type: functional
# Plasmodium falciparum [21] = test: Antiparasitic activity against chloroquine-resistant/verapamil-sensitive Plasmodium falciparum VS/1; assay type: functional
# Plasmodium falciparum [22] = test: Potentiation of chloroquine-induced anitiparasitic activity in chloroquine-resistant/verapamil-sensitive Plasmodium falciparum FCB assessed as decrease in chloroquine IC50 relative to control; assay type: functional
# Plasmodium falciparum [23] = test: Potentiation of chloroquine-induced anitiparasitic activity in chloroquine-resistant/verapamil-sensitive Plasmodium falciparum Dd2 assessed as decrease in chloroquine IC50 relative to control; assay type: functional
# [24] = target: T1, Histone deacetylase (Homo sapiens) (UniProt Q13547+O15379+Q9UBN7+Q92769+Q9UQL6+Q8WUI4+Q9BY41+Q96DB2+P56524+Q9UKV0+Q969S8); test: Inhibition of HDAC (unknown origin) at 100 nM using Fluor-Lys as substrate relative to control; assay type: protein assay
# [25] = target: T1, Histone deacetylase (Homo sapiens); test: Potency index, ratio of trichostatin A IC50 to compound IC50 for HDAC (unknown origin); assay type: protein assay
smiles,measurement,setting,value
N[C@@H](Cc1ccc(O)cc1)C(=O)Nc1ccccc1-c1ccc(NC(=O)CCCCCCC(=O)NO)cc1,IC50,[1],100000 nM
same,IC50,[2],> 100000 nM
same,IC50,[3],> 300000 nM
Nc1ccccc1-c1ccc(NC(=O)CCCCCCC(=O)NO)cc1,IC50,[4],2580 nM
same,IC50,[5],180 nM
same,IC50,[6],10000 nM
same,IC50,[7],1000 nM
same,growth inhibition (GI),Plasmodium falciparum [8],Active
same,growth inhibition (GI),Plasmodium falciparum [9],Active
same,growth inhibition (GI),Plasmodium falciparum [10],Active
O=C(CCCCCCC(=O)Nc1nc(-c2ccccc2)cs1)NO,IC50,[4],280 nM
same,IC50,[5],190 nM
same,IC50,[6],400 nM
same,IC50,[7],< 400 nM
same,growth inhibition (GI),Plasmodium falciparum [9],Active
same,growth inhibition (GI),Plasmodium falciparum [11],Active
same,growth inhibition (GI),Plasmodium falciparum [12],Active
same,growth inhibition (GI),Plasmodium falciparum [13],Active
Nc1cccc(-c2csc(NC(=O)CCCCCCC(=O)NO)n2)c1,IC50,[4],100 nM
same,IC50,[5],320 nM
same,IC50,[6],3000 nM
same,IC50,[7],< 400 nM
same,growth inhibition (GI),Plasmodium falciparum [9],Active
same,growth inhibition (GI),Plasmodium falciparum [11],Active
same,growth inhibition (GI),Plasmodium falciparum [12],Active
same,growth inhibition (GI),Plasmodium falciparum [13],Active
same,IC50,Plasmodium falciparum [14],0.175 nM
same,IC50,Plasmodium falciparum [15],1.25 nM
same,IC50,Plasmodium falciparum [16],0.9 nM
same,growth inhibition (GI),Plasmodium falciparum [17],Active
O=C(CCCCCCC(=O)Nc1ccc(-c2ccccc2)cc1)NO,IC50,[4],100 nM
same,IC50,[5],580 nM
same,IC50,[6],350 nM
same,IC50,[7],< 400 nM
same,growth inhibition (GI),Plasmodium falciparum [8],Active
same,growth inhibition (GI),Plasmodium falciparum [9],Active
same,growth inhibition (GI),Plasmodium falciparum [10],Active
CN(C)c1ccc(NC(=O)NCCCCCCC(=O)NO)cc1,IC50,Plasmodium falciparum [14],300 nM
same,IC50,Plasmodium falciparum [18],185 nM
same,IC50,Plasmodium falciparum [19],175 nM
same,IC50,Plasmodium falciparum [15],450 nM
same,IC50,Plasmodium falciparum [16],250 nM
same,IC50,Plasmodium falciparum [20],125 nM
same,IC50,Plasmodium falciparum [21],250 nM
same,fold change (FC),Plasmodium falciparum [22],5.5
same,fold change (FC),Plasmodium falciparum [23],3.5
O=C(CCCCCCC(=O)Nc1nc(-c2cccc([N+](=O)[O-])c2)cs1)NO,IC50,[4],380 nM
same,IC50,[5],320 nM
same,IC50,[6],3000 nM
same,IC50,[7],< 400 nM
same,growth inhibition (GI),Plasmodium falciparum [9],Active
same,growth inhibition (GI),Plasmodium falciparum [11],Active
same,growth inhibition (GI),Plasmodium falciparum [12],Active
same,growth inhibition (GI),Plasmodium falciparum [13],Active
same,IC50,Plasmodium falciparum [14],10 nM
same,IC50,Plasmodium falciparum [18],12 nM
same,IC50,Plasmodium falciparum [19],22 nM
same,IC50,Plasmodium falciparum [15],30 nM
N[C@@H](Cc1c[nH]c2ccccc12)C(=O)Nc1ccccc1-c1ccc(NC(=O)CCCCCCC(=O)NO)cc1,IC50,[2],> 100000 nM
same,IC50,[3],> 300000 nM
N[C@@H](Cc1ccccc1)C(=O)Nc1ccccc1-c1ccc(NC(=O)CCCCCCC(=O)NO)cc1,IC50,[2],100000 nM
Nc1ccccc1-c1csc(NC(=O)CCCCCCC(=O)NO)n1,inhibition,[24],2%
CCOC(=O)Nc1cccc(-c2csc(NC(=O)CCCCCCC(=O)NO)n2)c1,Ratio IC50,[25],2
same,IC50,[4],190 nM
same,IC50,[5],520 nM
